Here are results for three compounds from ChEMBL document CHEMBL2150906, “Synthesis of a new [6]-gingerol analogue and its protective effect with respect to the development of metabolic syndrome in mice fed a high-fat diet” (J Med Chem, 2011).

The source made the active and inactive calls. The rule behind the calls is not given here.

For series [1], the system named is Mus musculus. Description: Reduction in serum leptin levels in HFD-induced obese Jcl:MCH mouse model administered as supplement for 86 days measured after 100 days by ELISA relative to HFD-fed control. Format: functional, organism-based. On the technique in general: An ELISA detects its analyte on a solid surface through an enzyme-linked reagent.
The subject of series [2] is Mus musculus. Nature of the series: Antiobesity activity in HFD-induced obese Jcl:MCH mouse model assessed as decrease in body weight administered as supplement for 86 days (reference value: 51.2 +/- 2.7 g). The format is functional.
The subject of series [3] is Mus musculus. Nature of the series: Antiobesity activity in HFD-induced obese Jcl:MCH mouse model assessed as decrease in visceral fat administered as supplement for 86 days measured after 90 days by MRI relative to control. Format: functional.
The subject of series [4] is Mus musculus. Nature of the series: Reduction in FAS mRNA levels in HFD-induced obese Jcl:MCH mouse model liver administered as supplement for 86 days measured after 100 days by RT-PCR relative to HFD-fed control. The format is functional, organism-based.
Series [5] relates to Mus musculus. Nature of the series: Hypoglycemic activity in HFD-induced obese Jcl:MCH mouse model assessed as decrease in fasting blood glucose levels administered as supplement for 86 days measured after 92 to 94 days by OGTT relative to HFD-fed control. Format: functional, organism-based.
The subject of series [6] is Mus musculus. Nature of the series: Antiobesity activity in HFD-induced obese Jcl:MCH mouse model assessed as decrease in subcutaneous fat administered as supplement for 86 days measured after 90 days by MRI (reference value: 20.8 +/- 1.7 %). The format is functional. Set-up: scale not given: the % may be the effect or the level left.
Series [7] deals with Mus musculus. Nature of the series: Reduction in TNFalpha mRNA levels in HFD-induced obese Jcl:MCH mouse model adipose tissue administered as supplement for 86 days measured after 100 days by RT-PCR relative to HFD-fed control. The format is functional, organism-based.
Series [8] deals with Mus musculus. Description: Reduction in SREBP1c mRNA levels in HFD-induced obese Jcl:MCH mouse model administered as supplement for 86 days measured after 100 days by RT-PCR relative to HFD-fed control. The format is functional, organism-based.
Series [9] has as its system Mus musculus. Description: Hypoglycemic activity in HFD-induced obese Jcl:MCH mouse model assessed as decrease in post prandial blood glucose levels administered as supplement for 86 days measured after 92 to 94 days by OGTT relative to HFD-fed control. The format is functional, organism-based.
In series [10] the test system is 3T3-L1. Description: Increase in adiponectin mRNA levels in TNFalpha-induced mouse 3T3L1 cells pretreated at 25 to 50 uM before TNF-alpha challenge relative to control. Format: functional, cell-based.
The test system of series [11] is Mus musculus. Description: Reduction in serum insulin levels in HFD-induced obese Jcl:MCH mouse model administered as supplement for 86 days measured after 100 days by ELISA relative to HFD-fed control. The format is functional, organism-based.
In series [12] the test system is Mus musculus. Nature of the series: Reduction in leptin mRNA levels in HFD-induced obese Jcl:MCH mouse model adipose tissue administered as supplement for 86 days measured after 100 days by RT-PCR relative to HFD-fed control. Format: functional, organism-based.
For series [13], the system named is Mus musculus. Nature of the series: Reduction in ACC mRNA levels in HFD-induced obese Jcl:MCH mouse model liver administered as supplement for 86 days measured after 100 days by RT-PCR relative to HFD-fed control. Format: functional, organism-based.
The subject of series [14] is Mus musculus. Description: Antiobesity activity in regular chow-fed Jcl:MCH mouse assessed as decrease in subcutaneous fat administered as supplement for 86 days measured after 90 days by MRI (reference value: 5.4 +/- 1.7%). Format: functional. Set-up: scale not given: the % may be the effect or the level left.
The test system of series [15] is 3T3-L1. Nature of the series: Increase in adiponectin mRNA levels in TNFalpha-induced mouse 3T3L1 cells pretreated at 50 uM before TNF-alpha challenge relative to control. Format: functional, cell-based.
For series [16], the system named is Mus musculus. Nature of the series: Antiobesity activity in regular chow-fed Jcl:MCH mouse assessed as decrease in body weight administered as supplement for 86 days (reference value: 45.0 +/- 0.8 g). The format is functional.
A short description of series [17]: Stability of the compound in 6 N HCl assessed as formation of shogaols. Particulars: buffer. Format: physicochemical.
The nature of series [18]: Stability of the compound in simulated gastric fluid at pH 1.0 assessed as formation of shogaols. The format is physicochemical. Particulars: simulated gi fluid.
Series [19] relates to 3T3-L1. Description: Increase in adiponectin mRNA levels in TNFalpha-induced mouse 3T3L1 cells pretreated at 10 uM before TNF-alpha challenge relative to control. The format is functional, cell-based.

Take `CCCCCC(O)CC(=O)CCc1ccc(O)c(OC)c1` (configuration not stated): the result in series [1], in series [4], in series [5], in series [7], in [8] and in series [9] was Active. For the same compound, the result in series [10], in series [11], in [12] and in series [13] was Active. Further, the Activity is 47.1 g in series [2], 3.5 g in series [3] and 6.7% in [6].

As for `CCCCCC(O)CC(=O)NCc1ccc(O)c(OC)c1` (configuration not stated), the Activity was 6.7% in [14]; 41.6 g in series [2]; 1.84 g in [3]; 10.9% in series [6]; 41.6 g in series [16]. For the same compound, the result in [1], in series [4], in series [5], in [7], in [15] and in series [8] was Active. Further, the outcome in series [9], in series [10], in series [11], in series [12] and in series [13] was Active. The Stability result in series [17] and in series [18] was “Stable” in each case.

Take `CN(CCOc1ccc(CC2SC(=O)NC2=O)cc1)c1ccccn1` (configuration not stated): the result in series [19] was Active.
